This passage reports IC50 results from patent US8124610B2, “Sodium channel inhibitors” (Icagen Inc., priority 2007, dated 2012).

Structures are written as SMILES. pIC50: −log10 of the molar value.

The target of the assay is T1, hSCN9A (Homo sapiens, UniProt Q15858).
T1 construct: expressed in transfected cells
Briefly: Whole-cell patch-clamp electrophysiology (conventional or PatchXpress), HEK cells expressing hSCN9A, estimated IC-50. The conditions noted are these: estimated IC-50, HEK cells expressing hSCN9A; class symbols or bounds; read-out: SCN9A EIC-50. In kind it is cell-based. The essentials:
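Current through each channel was evoked by a 20 ms step to 0 mV following an 8 s conditioning prepulse at the cell's own half-inactivation voltage. Recordings used HEK lines stably expressing the channel, conventional or PatchXpress patch clamp, room temperature, pH 7.4 bath; inhibition taken as pre/post-compound amplitude change.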

T1 sequence (Q15858 whole entry): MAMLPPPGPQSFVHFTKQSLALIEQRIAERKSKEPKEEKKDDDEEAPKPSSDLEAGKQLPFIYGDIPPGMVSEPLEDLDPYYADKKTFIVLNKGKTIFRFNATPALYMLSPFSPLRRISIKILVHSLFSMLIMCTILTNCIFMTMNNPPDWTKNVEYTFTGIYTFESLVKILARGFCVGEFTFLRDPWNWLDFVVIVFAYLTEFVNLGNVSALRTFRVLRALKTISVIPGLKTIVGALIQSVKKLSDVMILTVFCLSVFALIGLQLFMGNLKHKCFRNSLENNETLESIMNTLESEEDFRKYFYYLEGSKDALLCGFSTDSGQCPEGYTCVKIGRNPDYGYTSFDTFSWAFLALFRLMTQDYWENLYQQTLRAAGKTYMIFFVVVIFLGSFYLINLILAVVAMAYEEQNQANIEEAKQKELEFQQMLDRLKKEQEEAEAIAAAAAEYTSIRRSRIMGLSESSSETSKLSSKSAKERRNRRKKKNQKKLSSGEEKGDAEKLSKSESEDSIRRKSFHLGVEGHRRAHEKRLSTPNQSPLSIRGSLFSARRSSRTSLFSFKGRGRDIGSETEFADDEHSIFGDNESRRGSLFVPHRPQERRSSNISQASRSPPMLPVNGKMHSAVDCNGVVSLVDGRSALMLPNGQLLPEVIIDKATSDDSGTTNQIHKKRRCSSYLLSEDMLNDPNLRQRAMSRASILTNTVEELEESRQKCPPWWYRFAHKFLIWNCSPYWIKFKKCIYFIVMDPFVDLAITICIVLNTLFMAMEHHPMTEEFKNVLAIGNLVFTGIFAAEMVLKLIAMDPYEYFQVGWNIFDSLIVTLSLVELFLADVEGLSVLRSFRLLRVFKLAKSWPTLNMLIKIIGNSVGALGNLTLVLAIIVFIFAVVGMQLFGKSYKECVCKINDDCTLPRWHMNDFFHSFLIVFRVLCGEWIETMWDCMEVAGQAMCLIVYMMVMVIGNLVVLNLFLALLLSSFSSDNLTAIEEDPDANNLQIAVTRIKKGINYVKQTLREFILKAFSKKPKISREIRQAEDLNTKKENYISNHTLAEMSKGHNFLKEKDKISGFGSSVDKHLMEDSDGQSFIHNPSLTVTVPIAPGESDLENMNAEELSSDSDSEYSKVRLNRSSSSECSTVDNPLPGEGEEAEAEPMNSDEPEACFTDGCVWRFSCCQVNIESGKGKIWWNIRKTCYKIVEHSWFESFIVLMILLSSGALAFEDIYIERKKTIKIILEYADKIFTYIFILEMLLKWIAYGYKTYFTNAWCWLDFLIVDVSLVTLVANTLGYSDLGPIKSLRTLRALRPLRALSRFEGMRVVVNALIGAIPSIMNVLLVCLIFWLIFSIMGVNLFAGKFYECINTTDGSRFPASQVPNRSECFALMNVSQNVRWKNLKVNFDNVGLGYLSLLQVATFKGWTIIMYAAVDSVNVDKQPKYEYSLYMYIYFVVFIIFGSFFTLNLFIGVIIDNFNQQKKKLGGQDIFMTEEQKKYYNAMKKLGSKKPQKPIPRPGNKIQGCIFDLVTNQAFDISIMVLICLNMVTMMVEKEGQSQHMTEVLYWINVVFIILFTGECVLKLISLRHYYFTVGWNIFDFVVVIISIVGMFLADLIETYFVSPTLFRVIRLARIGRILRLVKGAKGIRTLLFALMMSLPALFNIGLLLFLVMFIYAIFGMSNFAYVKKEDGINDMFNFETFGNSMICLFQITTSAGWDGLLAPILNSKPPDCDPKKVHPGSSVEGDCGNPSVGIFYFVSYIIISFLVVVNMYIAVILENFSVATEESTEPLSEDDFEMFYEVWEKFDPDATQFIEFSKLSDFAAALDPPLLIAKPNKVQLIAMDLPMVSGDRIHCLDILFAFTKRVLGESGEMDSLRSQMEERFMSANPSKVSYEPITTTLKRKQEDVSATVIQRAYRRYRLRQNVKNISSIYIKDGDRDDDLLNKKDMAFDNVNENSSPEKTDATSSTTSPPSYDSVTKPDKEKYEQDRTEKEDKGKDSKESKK

`O=S(=O)(Nc1nccs1)c1ccc(Nc2ccn(Cc3ccc(F)cc3)n2)c(F)c1` [Compound 226, 3-fluoro-4-(1-(4-fluorobenzyl)-1H-pyrazol-3-ylamino)-N-(thiazol-2-yl)benzenesulfonamide]: the pIC50 is over 5.70.

In the case of `O=S(=O)(Nc1nccs1)c1ccc(Nc2cnn(Cc3ccc(Cl)c(C(F)(F)F)c3)c2)cc1F` [Compound 229, 4-(1-(4-chloro-3-(trifluoromethyl)benzyl)-1H-pyrazol-4-ylamino)-2-fluoro-N-(thiazol-2-yl)benzenesulfonamide], the pIC50 is over 5.70.

As for `COc1ccc(OC(F)(F)F)cc1Cn1cc(Nc2ccc(S(=O)(=O)Nc3nccs3)c(F)c2)cn1` [Compound 230, 2-fluoro-4-(1-(2-methoxy-5-(trifluoromethoxy)benzyl)-1H-pyrazol-4-ylamino)-N-(thiazol-2-yl)benzenesulfonamide], the pIC50 is over 5.70.

For the compound `O=S(=O)(Nc1nccs1)c1ccc(Nc2cnn(Cc3ccc(Cl)cc3)c2)cn1` [Compound 231, 5-(1-(4-chlorobenzyl)-1H-pyrazol-4-ylamino)-N-(thiazol-2-yl)pyridine-2-sulfonamide], the pIC50 was 5.00 to 5.70.

As to `O=S(=O)(Nc1nncs1)c1ccc(Nc2ccn(Cc3ccc(Cl)cc3)n2)cc1F` [Compound 232, 4-(1-(4-chlorobenzyl)-1H-pyrazol-3-ylamino)-2-fluoro-N-(1,3,4-thiadiazol-2-yl)benzenesulfonamide], the pIC50 was over 5.70.

In the case of `Cc1cc(Nc2ccc(S(=O)(=O)Nc3nccs3)nc2)n(-c2ccccc2)n1` [Compound 234, 5-(3-methyl-1-phenyl-1H-pyrazol-5-ylamino)-N-(thiazol-2-yl)pyridine-2-sulfonamide], the pIC50 is 5.00 to 5.70.

On to `Cc1cc(Nc2ccc(S(=O)(=O)Nc3nc(C)ns3)c(F)c2)n(-c2ccccc2)n1` [Compound 236, 2-fluoro-N-(3-methyl-1,2,4-thiadiazol-5-yl)-4-(3-methyl-1-phenyl-1H-pyrazol-5-ylamino)benzenesulfonamide], for which the pIC50 is 5.00 to 5.70.

Turning to `Cc1cc(Nc2ccc(S(=O)(=O)Nc3nnc(C)o3)c(F)c2)n(-c2ccccc2)n1` [Compound 237, 2-fluoro-N-(5-methyl-1,3,4-oxadiazol-2-yl)-4-(3-methyl-1-phenyl-1H-pyrazol-5-ylamino)benzenesulfonamide], the pIC50 was 5.00 to 5.70.

Turning to `Cc1cc(Nc2ccc(S(=O)(=O)Nc3nncs3)c(F)c2)n(-c2ccccc2)n1` [Compound 238, 2-fluoro-4-(3-methyl-1-phenyl-1H-pyrazol-5-ylamino)-N-(1,3,4-thiadiazol-2-yl)benzenesulfonamide], the pIC50 was 5.00 to 5.70.

For the compound `Cc1cc(Nc2ccc(S(=O)(=O)Nc3ncc(C)s3)c(F)c2)n(-c2ccccc2)n1` [Compound 239, 2-fluoro-4-(3-methyl-1-phenyl-1H-pyrazol-5-ylamino)-N-(5-methylthiazol-2-yl)benzenesulfonamide], the pIC50 is 5.00 to 5.70.

On to `Cc1cc(Nc2ccc(S(=O)(=O)Nc3ncns3)c(F)c2)n(-c2ccccc2)n1` [Compound 240, 2-fluoro-4-(3-methyl-1-phenyl-1H-pyrazol-5-ylamino)-N-(1,2,4-thiadiazol-5-yl)benzenesulfonamide], for which the pIC50 is 5.00 to 5.70.

Turning to `Cc1cc(Nc2ccc(S(=O)(=O)Nc3nnc(-c4ccccc4)s3)c(F)c2)n(-c2ccccc2)n1` [Compound 241, 2-fluoro-4-(3-methyl-1-phenyl-1H-pyrazol-5-ylamino)-N-(5-phenyl-1,3,4-thiadiazol-2-yl)benzenesulfonamide], the pIC50 is 5.00 to 5.70.

Consider `O=S(=O)(Nc1nnc(C(F)(F)F)s1)c1ccc(Nc2ccn(Cc3ccc(Cl)cc3)n2)cc1F` [Compound 243, 4-(1-(4-chlorobenzyl)-1H-pyrazol-3-ylamino)-2-fluoro-N-(5-(trifluoromethyl)-1,3,4-thiadiazol-2-yl)benzenesulfonamide], for which the pIC50 is 5.00 to 5.70.

As to `CCc1nnc(NS(=O)(=O)c2ccc(Nc3cc(C)nn3-c3ccccc3)cc2F)s1` [Compound 246, N-(5-ethyl-1,3,4-thiadiazol-2-yl)-2-fluoro-4-(3-methyl-1-phenyl-1H-pyrazol-5-ylamino)benzenesulfonamide], the pIC50 is under 6.00.

As to `Cc1cc(Nc2ccc(S(=O)(=O)Nc3nnc(C)s3)c(F)c2)n(-c2ccccc2)n1` [Compound 247, 2-fluoro-N-(5-methyl-1,3,4-thiadiazol-2-yl)-4-(3-methyl-1-phenyl-1H-pyrazol-5-ylamino)benzenesulfonamide], the pIC50 was under 6.00.

In the case of `Cc1cc(Nc2ccc(S(=O)(=O)Nc3nnc(C(F)F)s3)c(F)c2)n(-c2ccccc2)n1` [Compound 248, N-(5-(difluoromethyl)-1,3,4-thiadiazol-2-yl)-2-fluoro-4-(3-methyl-1-phenyl-1H-pyrazol-5-ylamino)benzenesulfonamide], the pIC50 was 5.00 to 5.70.

`COCc1nnc(NS(=O)(=O)c2ccc(Nc3cc(C)nn3-c3ccccc3)cc2F)s1` [Compound 249, 2-fluoro-N-(5-(methoxymethyl)-1,3,4-thiadiazol-2-yl)-4-(3-methyl-1-phenyl-1H-pyrazol-5-ylamino)benzenesulfonamide]: the pIC50 is under 6.00.

Turning to `Cc1cc(Nc2ccc(S(=O)(=O)Nc3nnc(C4CC4)s3)c(F)c2)n(-c2ccccc2)n1` [Compound 250, N-(5-cyclopropyl-1,3,4-thiadiazol-2-yl)-2-fluoro-4-(3-methyl-1-phenyl-1H-pyrazol-5-ylamino)benzenesulfonamide], the pIC50 was under 6.00.

In the case of `Cc1nnc(NS(=O)(=O)c2ccc(Nc3ccn(Cc4ccc(Cl)cc4)n3)cc2F)s1` [Compound 251, 4-(1-(4-chlorobenzyl)-1H-pyrazol-3-ylamino)-2-fluoro-N-(5-methyl-1,3,4-thiadiazol-2-yl)benzenesulfonamide], the pIC50 was under 6.00.

Take `Cc1cc(Nc2ccc(S(=O)(=O)Nc3nnc(C(C)C)s3)c(F)c2)n(-c2ccccc2)n1` [Compound 252, 2-fluoro-N-(5-isopropyl-1,3,4-thiadiazol-2-yl)-4-(3-methyl-1-phenyl-1H-pyrazol-5-ylamino)benzenesulfonamide]: the pIC50 is under 6.00.

On to `O=S(=O)(Nc1nnc(C2CC2)s1)c1ccc(Nc2ccn(Cc3ccc(Cl)cc3)n2)cc1F` [Compound 253, 4-(1-(4-chlorobenzyl)-1H-pyrazol-3-ylamino)-N-(5-cyclopropyl-1,3,4-thiadiazol-2-yl)-2-fluorobenzenesulfonamide], for which the pIC50 was under 6.00.

Regarding `COCc1nnc(NS(=O)(=O)c2ccc(Nc3ccn(Cc4ccc(Cl)cc4)n3)cc2F)s1` [Compound 254, 4-(1-(4-chlorobenzyl)-1H-pyrazol-3-ylamino)-2-fluoro-N-(5-(methoxymethyl)-1,3,4-thiadiazol-2-yl)benzenesulfonamide], the pIC50 was under 6.00.

Turning to `CCc1nnc(NS(=O)(=O)c2ccc(Nc3ccn(Cc4ccc(Cl)cc4)n3)cc2F)s1` [Compound 255, 4-(1-(4-chlorobenzyl)-1H-pyrazol-3-ylamino)-N-(5-ethyl-1,3,4-thiadiazol-2-yl)-2-fluorobenzenesulfonamide], the pIC50 is under 6.00.

For `CC(C)c1nnc(NS(=O)(=O)c2ccc(Nc3ccn(Cc4ccc(Cl)cc4)n3)cc2F)s1` [Compound 256, 4-(1-(4-chlorobenzyl)-1H-pyrazol-3-ylamino)-2-fluoro-N-(5-isopropyl-1,3,4-thiadiazol-2-yl)benzenesulfonamide], the pIC50 is under 6.00.

On to `O=S(=O)(Nc1nc(C(F)(F)F)cs1)c1ccc(Nc2nc(Cc3ccc(Cl)cc3)cs2)cc1` [Compound 257, 4-(4-(4-chlorobenzyl)thiazol-2-ylamino)-N-(4-(trifluoromethyl)thiazol-2-yl)benzenesulfonamide], for which the pIC50 is 5.00 to 5.70.

`O=S(=O)(Nc1nc(C(F)(F)F)co1)c1ccc(Nc2nc(Cc3ccc(Cl)cc3)cs2)cc1` [Compound 258, 4-(4-(4-chlorobenzyl)thiazol-2-ylamino)-N-(4-(trifluoromethyl)oxazol-2-yl)benzenesulfonamide]: the pIC50 is under 6.00.

In the case of `Cc1cccc(NS(=O)(=O)c2ccc(Nc3ccn(Cc4ccc(Cl)cc4)n3)cc2F)n1` [Compound 259, 4-(1-(4-chlorobenzyl)-1H-pyrazol-3-ylamino)-2-fluoro-N-(6-methylpyridin-2-yl)benzenesulfonamide], the pIC50 was under 5.52.

Take `O=S(=O)(Nc1cccnn1)c1ccc(Nc2ccn(Cc3ccc(Cl)cc3)n2)cc1F` [Compound 260, 4-(1-(4-chlorobenzyl)-1H-pyrazol-3-ylamino)-2-fluoro-N-(pyridazin-3-yl)benzenesulfonamide]: the pIC50 was under 6.00.

As to `Cc1nnc(NS(=O)(=O)c2ccc(Nc3ccn(Cc4ccc(Cl)cc4)n3)cc2F)o1` [Compound 261, 4-(1-(4-chlorobenzyl)-1H-pyrazol-3-ylamino)-2-fluoro-N-(5-methyl-1,3,4-oxadiazol-2-yl)benzenesulfonamide], the pIC50 was under 6.00.

Consider `O=S(=O)(Nc1ccncn1)c1ccc(Nc2ccn(Cc3ccc(Cl)cc3)n2)cc1F` [Compound 262, 4-(1-(4-chlorobenzyl)-1H-pyrazol-3-ylamino)-2-fluoro-N-(pyrimidin-4-yl)benzenesulfonamide], for which the pIC50 is 5.00 to 5.70.

In the case of `O=S(=O)(Nc1nncs1)c1ccc(Nc2ccn(Cc3ccc(Cl)cc3)n2)cc1C(F)(F)F` [Compound 265, 4-(1-(4-chlorobenzyl)-1H-pyrazol-3-ylamino)-N-(1,3,4-thiadiazol-2-yl)-2-(trifluoromethyl)benzenesulfonamide], the pIC50 was over 5.70.

Consider `Cc1cc(Nc2cc(F)c(S(=O)(=O)Nc3nccs3)cc2F)n(-c2ccccc2)n1` [Compound 267, 2,5-difluoro-4-(3-methyl-1-phenyl-1H-pyrazol-5-ylamino)-N-(thiazol-2-yl)benzenesulfonamide], for which the pIC50 is over 5.70.

For the compound `Cc1cc(Nc2ccc(S(=O)(=O)Nc3nccs3)c(C)c2)n(-c2ccccc2)n1` [Compound 268, 2-methyl-4-(3-methyl-1-phenyl-1H-pyrazol-5-ylamino)-N-(thiazol-2-yl)benzenesulfonamide], the pIC50 is 5.00 to 5.70.
